The text below walks through data of PubChem BioAssay (NCI).

Some test systems named below: A549 NSCLC; EKVX NSCLC; HCC-2998 colon; HL-60(TB) leukemia; HOP-62 NSCLC; IGROV1 ovarian; M14 melanoma; MCF7 breast; NCI-H23 lung; PC-3 prostate; SF-295 CNS; SN12C renal; U251 CNS.
Holding throughout (assay): NCI-60 cell line screen, 48 h

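Where inhibition never reached the appropriate level, the endpoint shown equals the highest concentration tested. Otherwise, values were interpolated linearly from a five-concentration, 48-hour dose response in 96-well plates. TGI is the concentration that stops growth completely.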

For the compound `COc1ccc2c[n+](C)c3c4cc(OC)c(OC)cc4ccc3c2c1`, the TGI with A549 NSCLC turned out to be 10.3 µM; with EKVX NSCLC, 54.7 µM; with HCC-2998 colon it was 34.3 µM; with HL-60(TB) leukemia, 32.4 µM; in the assay on HOP-62 NSCLC, 27.7 µM; in the assay on IGROV1 ovarian, 22.1 µM. Besides, the TGI with M14 melanoma is 32.1 µM; in the assay with MCF7 breast, more than 100 µM; with NCI-H23 lung, 13.6 µM; in the assay on PC-3 prostate, 16.2 µM; in the assay on SF-295 CNS, 34.8 µM; in the assay with SN12C renal, 12.6 µM. For the same compound, the TGI with U251 CNS was found to be 15.3 µM.

`O=C1/C(=C/c2ccc(Cl)cc2)N=C(c2ccccc2)N1C1Nc2cc3c(cc2S1)NC(N1C(=O)/C(=C/c2ccc(Cl)cc2)N=C1c1ccccc1)S3` (centres undefined): the TGI with EKVX NSCLC is more than 100 µM; in the assay with HCC-2998 colon, more than 100 µM; in the assay with HL-60(TB) leukemia it was 2.47 µM; in the assay on HOP-62 NSCLC, more than 100 µM; with IGROV1 ovarian it was more than 100 µM; with M14 melanoma, more than 100 µM. Further, the TGI in the assay with MCF7 breast, with NCI-H23 lung, with PC-3 prostate, with SF-295 CNS and with U251 CNS was more than 100 µM throughout.

As for `O=c1c[n+](-c2ccccc2)[nH]o1`, the TGI in the assay on A549 NSCLC, with EKVX NSCLC, in the assay on HCC-2998 colon, with HL-60(TB) leukemia, in the assay on HOP-62 NSCLC and in the assay with IGROV1 ovarian was more than 100 µM in each case. In addition, the TGI in the assay with M14 melanoma, with MCF7 breast, with NCI-H23 lung, with PC-3 prostate, in the assay on SF-295 CNS and in the assay on SN12C renal was more than 100 µM each time. In the assay on U251 CNS, the TGI was more than 100 µM.

Regarding `CC1(C)CCCCCC(C)(CCCCCCCCCCCO)C1=O` (centres undefined), the TGI in the assay on A549 NSCLC is 29 µM; in the assay on EKVX NSCLC, 32 µM; with HCC-2998 colon, 39.9 µM; in the assay on HL-60(TB) leukemia, 31.8 µM; in the assay with HOP-62 NSCLC it was 31.6 µM; with IGROV1 ovarian, 32.6 µM. Further, the TGI with MCF7 breast is 29.8 µM; in the assay on NCI-H23 lung, 30.3 µM; with PC-3 prostate it was 30 µM; in the assay on SF-295 CNS, 29.6 µM; with SN12C renal, 29.9 µM; in the assay with U251 CNS, 31.1 µM.

As to `BrCCC[P+](c1ccccc1)(c1ccccc1)c1ccccc1`, the TGI in the assay with A549 NSCLC was more than 63.8 µM; in the assay with EKVX NSCLC, more than 100 µM; in the assay on HCC-2998 colon it was more than 100 µM; with HL-60(TB) leukemia, 6.49 µM; with HOP-62 NSCLC it was more than 100 µM; in the assay on IGROV1 ovarian, more than 66.9 µM. The TGI is more than 100 µM with M14 melanoma; more than 100 µM in the assay on MCF7 breast; more than 64.7 µM with NCI-H23 lung; more than 100 µM with PC-3 prostate; more than 100 µM in the assay with SF-295 CNS; more than 100 µM in the assay on SN12C renal. Further, the TGI with U251 CNS was more than 100 µM.

Regarding `O=C1NC(N/N=C/c2ccccc2)=N/C1=C\c1cccs1`, the TGI in the assay with A549 NSCLC was more than 100 µM; in the assay on EKVX NSCLC it was 47.3 µM; with HL-60(TB) leukemia, 36.7 µM; in the assay with HOP-62 NSCLC, 37.8 µM; with IGROV1 ovarian, 34.4 µM; with M14 melanoma it was more than 100 µM. In addition, the TGI in the assay on MCF7 breast was found to be 46.5 µM; in the assay on NCI-H23 lung, 40.7 µM; with PC-3 prostate, 26.7 µM; in the assay on SF-295 CNS it was 34.6 µM; in the assay on SN12C renal it was 46.4 µM; with U251 CNS it was 32.8 µM.

As for `COP(=O)(OC)C(O)/C=C/c1ccco1` (centres undefined), the TGI in the assay with A549 NSCLC, in the assay with EKVX NSCLC, in the assay with HL-60(TB) leukemia, with HOP-62 NSCLC, with IGROV1 ovarian and in the assay with M14 melanoma was more than 100 µM in each case. For the same compound, the TGI in the assay on MCF7 breast, in the assay with NCI-H23 lung, in the assay on PC-3 prostate, with SF-295 CNS, with SN12C renal and in the assay with U251 CNS was more than 100 µM each time.

In the case of `CC1C2(C)OC(=N)C(C#N)(C(c3ccco3)O2)C1(C#N)C#N` (centres undefined), the TGI was more than 100 µM in the assay with A549 NSCLC; more than 100 µM in the assay with EKVX NSCLC; 55.5 µM in the assay with HCC-2998 colon; 48.3 µM in the assay on HL-60(TB) leukemia; more than 100 µM in the assay with IGROV1 ovarian; 35.9 µM in the assay with M14 melanoma. Also, the TGI with MCF7 breast was 51.4 µM; with NCI-H23 lung, 93.6 µM; with PC-3 prostate it was more than 100 µM; with SF-295 CNS, more than 100 µM; in the assay on SN12C renal it was 30.4 µM; with U251 CNS, 51.5 µM.

As to `NC1=NN(c2ccccc2)C2(c3ccncc3C(=O)O)C1C(N)=NN2c1ccccc1` (centres undefined), the TGI in the assay with A549 NSCLC, in the assay on EKVX NSCLC, with HCC-2998 colon, with HL-60(TB) leukemia, in the assay on IGROV1 ovarian and in the assay with M14 melanoma was more than 100 µM throughout. The TGI in the assay on MCF7 breast, in the assay with NCI-H23 lung, with PC-3 prostate, in the assay with SF-295 CNS, in the assay on SN12C renal and with U251 CNS was more than 100 µM in each case.

For the compound `O=C(N/N=C/C=C/c1ccc([N+](=O)[O-])o1)c1ccc(Br)s1`, the TGI in the assay on A549 NSCLC is more than 100 µM; in the assay on EKVX NSCLC it was 95.9 µM; with HL-60(TB) leukemia, 87.2 µM; in the assay with HOP-62 NSCLC, more than 100 µM; with IGROV1 ovarian, 16.4 µM; with M14 melanoma, 42.1 µM. In addition, the TGI with MCF7 breast was more than 100 µM; in the assay with NCI-H23 lung it was 33.5 µM; in the assay on PC-3 prostate, 49.7 µM; in the assay with SF-295 CNS it was more than 100 µM; in the assay on SN12C renal, 70.5 µM; in the assay on U251 CNS, more than 100 µM.

Turning to `Clc1ccc2c(c1)CC1C[N+]3=C(CCCC3)C1=C2` (centres undefined), the TGI in the assay on A549 NSCLC, in the assay with EKVX NSCLC, in the assay with HL-60(TB) leukemia, in the assay on HOP-62 NSCLC, with IGROV1 ovarian and in the assay on M14 melanoma was more than 100 µM in each case. Moreover, the TGI with MCF7 breast, with NCI-H23 lung, in the assay on PC-3 prostate, in the assay on SF-295 CNS, with SN12C renal and in the assay with U251 CNS was more than 100 µM in each case.
